Measurements from patent US11419902B2, “Compositions comprising bacterial strains” (4D Pharma Research Limited, priority 2018, dated 2022).

Legend:
[1] = tested on: HT29 colorectal cancer cell line; assay: Clonogenic survival of HT29 cell line; format: cell-based; conditions: HT29, added to MRx0029
Protocol: (§1) Cells were trypsinized and 200 cells/well were seeded in 12-well plates. After 48 h cells were treated with the appropriate drugs in absence (YCFA+) or presence of 10% bacterial supernatant and were re-fed every three days. On day 21 after seeding, cells were fixed in ice-cold methanol and stained with Crystal Violet blue. […] were counted and survival fraction was calculated as number of colonies divided by the number of plated cells (plating efficiency) of treated divided by the plating efficiency of control.
The effects of the following treatments were assessed on the HT29 colorectal cancer cell line (V600E oncogenic mutation in BRAF): (1) MRx0029; (2) Vemurafenib (VEMU) in YFCA+ medium; (3) VEMU and MRx0029; (4) Azacytidine-C (Aza-c) in YCFA+ medium; (5) Aza-c and MRx0029; (6) VEMU, Aza-c and MRx0029.

451Lu melanoma cell line = assay: Soft agar growth of 451Lu cell line; format: cell-based; conditions: added to MRx0029
Protocol: (§2) A mixture of 25 μL prewarmed (37° C.) 2× appropriate growth medium (EMEM for melanoma cell lines; DMEM high glucose for HT29) containing 20% FBS, 4 mM L-Glu, 2×NEAA, 0.6% sodium bicarbonate, 200 U/mL penicillin/streptomycin (Invitrogen), and 25 μL prewarmed (47° C.) 1.2% Noble Agar (A5431; Sigma Aldrich) were plated onto each well of a 96-well microplate to serve as a prelayer for the assay. Ten microliters of cell suspensions containing 0-2×10^3 cells were mixed with 25 μL 2× growth media and 35 μL 0.8% Noble Agar in a 96-well round-bottom polypropylene microplate and transferred to the 96-well microplate containing the solidified prelayers. […] They left to grow in the humidified 37° C. incubator with 5% CO2 for 1-2 weeks before soft agar growth was scored using the CytoSelect 96 well cell transformation assay (CBA-130; Cell Biolabs) according to the manufacturer's protocol. Cell growth was measured using a Tecan Infinite F200 Pro Series Multi-Well Plate Reader (Tecan Biosystems), with excitation at 485 nm and emission at 530 nm. […]
The effects of the following treatments were assessed on the 451Lu melanoma cell line (V600E oncogenic mutation in BRAF): (1) MRx0029; (2) Vemurafenib (VEMU) in YFCA+ medium; (3) VEMU and MRx0029; (4) Azacytidine-C (Aza-c) in YFCA+ medium; (5) Aza-c and MRx0029; (6) VEMU, Aza-c and MRx0029.

[2] = tested on: SKMEL31 melanoma cell line; assay: Clonogenic survival of SKMEL31 cell line; format: cell-based; conditions: SKMEL31, added to MRx0029
Protocol: as §1
(§3) The effects of the following treatments were assessed on the SKMEL31 melanoma cell line (heterozygous for BRAF V600E): (1) MRx0029; (2) Vemurafenib (VEMU) in YFCA+ medium; (3) VEMU and MRx0029; (4) Azacytidine-C (Aza-c) in YFCA+ medium; (5) Aza-c and MRx0029; (6) VEMU, Aza-c and MRx0029.

[3] = tested on: SKMEL31 melanoma cell line; assay: Soft agar growth of SKMEL31 cell line; format: cell-based; conditions: SKMEL31, added to MRx0029
Protocol: as §2, §3

IL-8 [4] = assay: IL-8 secretion by differentiated HT29-mtx cells; format: cell-based; conditions: 24 h, vs untreated and YCFA+-treated cells
Excerpt: The ability of MRx0029 to cause any intestinal barrier dysfunction was investigated. HT29-mtx epithelial, mucin-producing cell monolayers were used as an in vitro model to evaluate gut barrier disruption and immune stimulation following treatment with MRx0029.

IL-8 [5] = assay: IL-8 secretion in U373 cells treated with SCFAs or supernatant fractions (ELISA); format: cell-based, Human; conditions: U373 cells pre-treated 1 h with 1 μg/ml LPS, increasing concentrations
Protocol: Human glioblastoma astrocytoma cell line (U373), were maintained in 25 ml MEME 4.5 g/L D-glucose supplemented with 10% heat-inactivated FBS, 4 mM L-Glutamine, 100 U/ml penicillin, 100 μg/ml streptomycin and 5 μg/ml plasmocin, 1% Non-Essential Amino Acids, 1% Sodium Pyruvate (referred to as full growth media).
U373 cells were prepared as described above. Cells were pre-treated for 1 h with 1 μg/ml LPS indicated above and incubated at 37° C. and 5% CO2. After 1 h pre-incubation, cells were removed from CO2 incubator and treated with increasing concentration of fresh prepared Sodium Butyrate (SB), Sodium Valerate (SV) and Hexanoic Acid (HA).
U373 cells were prepared as described above. Cells were pre-treated for 1 h with 1 μg/ml LPS as indicated above. Afterwards, cells were removed from CO2 incubator and treated with 100 μl of the different fractions. Fractions from media were used as controls. Cell-free supernatants were collected 24 h after treatment and analysed by ELISA for IL-8 secretion (as outlined above).

HDAC [6] = assay: HDAC inhibition on whole HT-29 cells; format: cell-based
Protocol: (§4) Pure cultures of bacteria were grown anaerobically in YCFA+ broth until they reached their stationary growth phase. Cultures were centrifuged at 5,000×g for 5 minutes and the cell-free supernatant (CFS) was filtered using a […] (Millipore, UK). 1 mL aliquots of the CFS were stored at −80° C. until use. Sodium butyrate, hexanoic and valeric acid were obtained from Sigma Aldrich (UK) and suspensions were prepared in YCFA+ broth.
(§5) To investigate which metabolites were responsible for the strain-induced HDAC inhibition, different concentrations of hexanoic acid, valeric acid and sodium butyrate were measured for their HDAC inhibition on whole HT-29 cells and on HT-29 cell lysate.

HDAC [7] = assay: HDAC inhibition on HT-29 cell lysate; format: biochemical
Protocol: as §4, §5

Compound | LPS-induced secretion of IL-8 (IL-8 [5]) | HDAC inhibition on whole HT-29 cells (HDAC [6]) | HDAC inhibition on HT-29 cell lysate (HDAC [7]) | also measured
Nc1ncn([C@@H]2O[C@H](CO)[C@@H](O)[C@H]2O)c(=O)n1 [Aza-c, Azacytidine-C] | – | – | – | effect on inhibition of clonogenic survival by MRx0029 [1]: improved the effects of MRx0029 in inhibiting clonogenic survival; effect on soft agar growth inhibition by MRx0029 (451Lu melanoma cell line): enhanced soft agar growth inhibition by MRx0029; effect on clonogenic survival inhibition by MRx0029 [2]: improved; effect on soft agar growth inhibition by MRx0029 [3]: improved
CCCCCCCCCCCCCC(=O)O[C@@H]1[C@@H](C)[C@@]2(O)[C@@H](C=C(CO)C[C@]3(O)C(=O)C(C)=C[C@@H]23)[C@@H]2C(C)(C)[C@]12OC(C)=O [PMA, phorbol 12-myristate-13-acetate, reference compound] | – | – | – | secretion of IL-8 (IL-8 [4]): secreted a significant amount of IL-8
CCCCC(=O)[O-].[Na+] [SV, sodium valerate] | increased LPS-induced secretion of IL-8 | – | – | –
CCCCCC(=O)O [hexanoic acid] | did not inhibit IL-8 secretion | did not show significant inhibitory activity | did not show significant inhibitory activity | –
CCCC(=O)[O-].[Na+] [sodium butyrate] | increased LPS-induced secretion of IL-8 | significant (P<0.05) inhibition of HDAC activity | significant (P<0.05) inhibition of HDAC activity | –
CCCCC(=O)O [valeric acid] | – | inhibited HDAC activity | inhibited HDAC activity | –
